How the values were obtained:
[1] = tested on: IFN-gamma; assay: IFN-gamma production by PBMC from healthy volunteers, CBA; assay type: cell-based, human
Procedure: (§1) CBA protocol was followed according to the manufacturer's instructions. The election of microparticles was performed following the summary of FIG. 1.
(§2) The acquisition on samples was performed with the BD FACS Array Bioanalyser System (FACSArray, Becton Dickinson, San José, Calif., USA) and the analysis of the results was completed with the software FCAP Array (Becton Dickinson) in a PC computer.
Briefly, the experimental protocol consisted of a plate pre-washing out with Wash Buffer. After decantation, the mixture of capture microparticles was re-suspended in the vortex. Standards and samples were added in the adequate dilution. After permanent stirring incubation during 1 h, the PE detection reagent was added and incubated again during 2 h at room temperature. […]
PBMC (5×10^4 cells per well) from 13 healthy volunteers were cultured in duplicate in 200 μl of complete medium supplemented with the highest solvent concentration (10^−6 M), and 10^−6 M, 10^−7 M and 10^−8 M of compound 12 in the presence or absence, either of LPS (10 μg/ml), or anti-CD3 (12.5 ng/ml)+anti-CD28 (⅓×10^5), during 24 hours. Culture supernatants were frozen at −20° C. and the concentration of IFN-gamma was quantified by BD FACS Array Bioanalyser by using CBA Flex Set (Becton Dickinson), specific to determine the concentration of IFN-gamma, following the manufacturer instructions.

[2] = tested on: IL-8; assay: IL-8 production by PBMC from healthy volunteers, CBA; assay type: cell-based, human
Procedure: as §1, §2
Briefly, the experimental protocol consisted of a plate pre-washing out with Wash Buffer. After decantation, the mixture of capture microparticles was re-suspended in the vortex. Standards and samples were added in the adequate dilution. After permanent stirring incubation during 1 h, the PE detection reagent was added and incubated again during 2 h at room temperature. After a washing-out, the acquisition was performed in the flow cytometer.
The effect of compound 12 on the IL-8 production by the PBMC from healthy volunteers was further investigated, both in the presence and absence of LPS stimuli and monoclonal antibodies anti-CD3 and anti-CD28. PBMC (5×10^4 cells/well) from 13 healthy volunteers were cultured in duplicate in 200 μl of complete medium supplemented with the highest solvent concentration (10^−6 M), and 10^−6 M, 10^−7 M and 10^−8 M of compound 12, in the presence and absence of either LPS (10 μg/ml) or anti-CD3 (12.5 ng/ml)+anti-CD28 (⅓×10^5), during 24 hours. Culture supernatants were frozen at −20° C. and IL-8 concentration was quantified by BD FACS Array Bioanalyser by using CBA Flex Set, specific to determine the IL-8 concentration, following the manufacturer instructions.

With `Cc1nc(OC2CCCC2)c(-c2ccc(S(C)(=O)=O)cc2)s1` [Compound 12, 4-cyclopentyloxy-5-(4-methylsulfonyl-phenyl)-2-methyl-thiazole] the “Effect on IFN-gamma production by PBMC, LPS-stimulated or anti-CD3 and anti-CD28 stimulated” value ([1]; 10^−6 M, p<0.05, FIG. 5) was “significantly inhibited”, the “Effect on spontaneous secretion of IFN-gamma by PBMC” value ([1]; no stimulus) was “not modified” and the “Effect on IL-8 production under LPS stimulation of PBMC” value [2] was “no effects were observed”. For the same compound, the “Effect on spontaneous production of IL-8 by PBMC” value ([2]; 10^−6 M and 10^−7 M, p<0.05, FIG. 7) was “significantly inhibited” and the “Effect on IL-8 production induced by anti-CD3 and anti-CD28” value ([2]; 10^−8 M) was “significant inhibition”.
